Data from patent US9809583B2 (priority 2014, dated 2017).
Where two headings read alike, the source gives them in different places.

Legend:
androgen receptor (hAR) = androgen receptor (hAR) (Homo sapiens (Human), UniProt P10275); test: Test of transcriptional activity (hAR / ARE-Luc dual-luciferase assay in CHO cells); type: cell-based; conditions: CHO cells with hAR and ARE-Luc, 24 hours, 10 nM DHT = 100%
Procedure, shortened: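 CHO cells cultured 24 h, then transfected with hAR and ARE-Luc plasmids. Transfected cells treated with 0.1˜10,000 nM compound for 24 h; transcriptional activity read by dual-luciferase reporter.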

castrated male rats = test: Efficacy test in castrated male rat (Hershberger assay); type: in vivo, SD (Sprague-Dawley) rat; conditions: castrated male SD rats, oral once a day for 14 days
Procedure: SD (Sprague-Dawley) male rats (7-week-old) were castrated under ketamine/xylazine anesthesia, and 5 rats were randomly assigned to one group. From the next day, the agonists were dissolved in a vehicle solution and orally administered at a dose of 5 ml per kg once a day for 14 days. As the vehicle, DMSO, Co-solvent, and DW were prepared at a ratio of 4:80:16 (v/v/v), and Co-solvent was prepared by mixing PEG400, Ethanol, and Tween 80 at a ratio of 85:10:5 (v/v/v). 24 hours after last administration of the drug, their body weight was measured and killed. Thereafter, levator ani muscle, ventral prostate, and seminal vesicles were removed and weighed (Hershberger assay). The following Table 6 represents the result of the efficacy test in castrated male rats.

[1] = read-out: EC50 [nM] (mean ± SE)

Chain of androgen receptor (hAR) (P10275 whole entry): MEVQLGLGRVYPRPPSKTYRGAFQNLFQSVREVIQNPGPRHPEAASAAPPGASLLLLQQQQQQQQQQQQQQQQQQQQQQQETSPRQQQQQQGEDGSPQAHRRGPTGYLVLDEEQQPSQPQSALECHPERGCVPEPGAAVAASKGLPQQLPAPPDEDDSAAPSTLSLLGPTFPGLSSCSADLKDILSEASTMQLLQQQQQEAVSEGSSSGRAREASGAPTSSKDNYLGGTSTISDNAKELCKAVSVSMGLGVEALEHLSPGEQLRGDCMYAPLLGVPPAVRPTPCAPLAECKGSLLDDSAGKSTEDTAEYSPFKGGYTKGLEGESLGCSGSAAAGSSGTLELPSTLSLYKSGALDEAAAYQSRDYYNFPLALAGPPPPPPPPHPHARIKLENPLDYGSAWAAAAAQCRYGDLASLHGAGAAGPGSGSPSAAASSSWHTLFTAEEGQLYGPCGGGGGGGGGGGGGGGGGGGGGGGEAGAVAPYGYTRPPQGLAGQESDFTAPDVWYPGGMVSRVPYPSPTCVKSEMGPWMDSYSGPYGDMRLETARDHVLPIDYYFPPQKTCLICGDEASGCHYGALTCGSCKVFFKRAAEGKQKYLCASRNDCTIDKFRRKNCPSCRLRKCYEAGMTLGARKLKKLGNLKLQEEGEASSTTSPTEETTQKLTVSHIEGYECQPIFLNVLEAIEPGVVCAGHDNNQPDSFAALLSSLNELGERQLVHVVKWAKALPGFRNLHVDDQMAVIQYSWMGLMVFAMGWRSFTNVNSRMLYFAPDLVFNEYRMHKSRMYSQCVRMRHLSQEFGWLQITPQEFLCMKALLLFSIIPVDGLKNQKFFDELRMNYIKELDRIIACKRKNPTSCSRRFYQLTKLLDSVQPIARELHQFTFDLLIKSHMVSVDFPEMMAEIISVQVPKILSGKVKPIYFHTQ

Compound	levator ani muscle weight % relative to intact control group (castrated male rats; 0.1 mg/kg) [%]	seminal vesicles weight % relative to intact control group (castrated male rats; 0.1 mg/kg) [%]	levator ani muscle weight % relative to intact control group (castrated male rats; 0.3 mg/kg) [%]	seminal vesicles weight % relative to intact control group (castrated male rats; 0.3 mg/kg) [%]	ventral prostate weight % relative to intact control group (castrated male rats; 0.3 mg/kg) [%]	levator ani muscle weight % relative to intact control group (castrated male rats; 1 mg/kg) [%]	seminal vesicles weight % relative to intact control group (castrated male rats; 1 mg/kg) [%]	ventral prostate weight % relative to intact control group (castrated male rats; 1 mg/kg) [%]	levator ani muscle weight % relative to intact control group (castrated male rats; 3 mg/kg) [%]	seminal vesicles weight % relative to intact control group (castrated male rats; 3 mg/kg) [%]	ventral prostate weight % relative to intact control group (castrated male rats; 3 mg/kg) [%]	levator ani muscle weight % relative to intact control group (castrated male rats; 10 mg/kg) [%]	seminal vesicles weight % relative to intact control group (castrated male rats; 10 mg/kg) [%]	ventral prostate weight % relative to intact control group (castrated male rats; 10 mg/kg) [%]	levator ani muscle weight % relative to intact control group (castrated male rats; 30 mg/kg) [%]	seminal vesicles weight % relative to intact control group (castrated male rats; 30 mg/kg) [%]	ventral prostate weight % relative to intact control group (castrated male rats; 30 mg/kg) [%]	levator ani muscle weight % relative to intact control group (castrated male rats; 100 mg/kg) [%]	seminal vesicles weight % relative to intact control group (castrated male rats; 100 mg/kg) [%]	ventral prostate weight % relative to intact control group (castrated male rats; 100 mg/kg) [%]	other results
(2R,5S)-3-(3-chloro-4-cyanophenyl)-N-(2-chloropyridin-4-yl)-2-(trifluoromethyl)oxazolidine-5-carboxamide [Example 136]	4.5 ± 0.9	−0.4 ± 0.1	10.0 ± 0.8	0.8 ± 0.1	1.2 ± 0.3	29.1 ± 3.3	0.9 ± 0.2	2.6 ± 0.4	36.6 ± 3.4	2.4 ± 0.7	4.1 ± 0.9	61.8 ± 3.1	11.0 ± 3.6	10.5 ± 3.7	81.4 ± 10.9	35.8 ± 14.4	25.4 ± 7.8	98.5 ± 7.7	57.8 ± 17.9	42.1 ± 7.5	EC50 (androgen receptor (hAR); [1]): 5.07 nM; levator ani muscle weight % relative to intact control group (castrated male rats; 0.03 mg/kg): 3.7 ± 0.8%; seminal vesicles weight % relative to intact control group (castrated male rats; 0.03 mg/kg): −0.1 ± 0.0%; ventral prostate weight % relative to intact control group (castrated male rats; 0.03 mg/kg): 1.7 ± 0.5%; ventral prostate weight % relative to intact control group (castrated male rats; 0.1 mg/kg): −0.6 ± 0.3%
(2R,5S)-N-(4-acetamidophenyl)-3-(3-chloro-4-nitrophenyl)-2-(trifluoromethyl)oxazolidine-5-carboxamide [Example 123]	7.00 ± 0.7	0.2 ± 0.0	14.7 ± 1.5	0.1 ± 0.0	1.6 ± 0.2	23.0 ± 1.1	0.5 ± 0.1	0.7 ± 0.2	40.2 ± 4.2	2.8 ± 1.2	5.6 ± 1.9	58.7 ± 4.1	11.0 ± 2.3	7.9 ± 2.2	78.9 ± 4.0	30.5 ± 5.7	23.0 ± 2.9	88.5 ± 4.7	58.7 ± 10.8	39.0 ± 9.8	EC50 (androgen receptor (hAR); [1]): 7.34 nM; levator ani muscle weight % relative to intact control group (castrated male rats; 0.03 mg/kg): 3.5 ± 0.5%; seminal vesicles weight % relative to intact control group (castrated male rats; 0.03 mg/kg): 0.3 ± 0.0%; ventral prostate weight % relative to intact control group (castrated male rats; 0.03 mg/kg): 0.5 ± 0.1%
COC(=O)N1CCN(C(=O)[C@@H]2CN(c3ccc(C#N)c(C(F)(F)F)c3)[C@@H](C(F)(F)F)O2)CC1 [Example 173, methyl 4-((2R,5S)-3-(4-cyano-3-(trifluoromethyl)phenyl)-2-(trifluoromethyl)oxazolidine-5-carbonyl)piperazine-1-carboxylate]	15.0 ± 1.2	1.3 ± 0.3	37.5 ± 2.3	2.9 ± 0.3	3.5 ± 0.5	61.1 ± 9.9	5.9 ± 2.1	9.1 ± 2.1	69.9 ± 3.6	20.3 ± 4.8	12.4 ± 3.5	93.0 ± 11.0	34.5 ± 4.0	24.4 ± 2.0	91.4 ± 8.2	45.5 ± 8.6	33.2 ± 3.3	99.5 ± 13.0	52.8 ± 10.6	48.6 ± 9.3	EC50 (androgen receptor (hAR); EC50 [nM] (mean ± SE)): 5.34 nM; levator ani muscle weight % relative to intact control group (castrated male rats; 0.03 mg/kg): 9.8 ± 0.6%; seminal vesicles weight % relative to intact control group (castrated male rats; 0.03 mg/kg): 1.3 ± 0.4%; ventral prostate weight % relative to intact control group (castrated male rats; 0.03 mg/kg): 0.6 ± 0.1%; ventral prostate weight % relative to intact control group (castrated male rats; 0.1 mg/kg): 3.2 ± 0.6%
N#Cc1ccc(OC[C@@H]2CN(c3ccc(C#N)c(C(F)(F)F)c3)[C@@H](C(F)(F)F)O2)cn1 [Example 44, 5-(((2R,5S)-3-(4-cyano-3-(trifluoromethyl)phenyl)-2-(trifluoromethyl)oxazolidin-5-yl)methoxy)picolinonitrile]	43.3 ± 8.1	6.7 ± 1.5	66.6 ± 8.7	16.9 ± 6.7	13.6 ± 5.0	82.4 ± 10.2	37.9 ± 4.3	26.1 ± 5.2	92.1 ± 6.5	54.5 ± 11.9	38.7 ± 8.3	87.0 ± 7.5	46.1 ± 10.8	28.2 ± 5.5	74.2 ± 2.8	49.6 ± 6.0	34.7 ± 4.1	90.5 ± 6.5	72.4 ± 14.6	39.9 ± 4.7	EC50 (androgen receptor (hAR); EC50 [nM] (mean ± SE)): 2.6 ± 0.4 nM; ventral prostate weight % relative to intact control group (castrated male rats; 0.1 mg/kg): 7.0 ± 3.2%
N#Cc1ccc(N2C[C@@H](COc3ccnc(Cl)c3)O[C@@H]2C(F)(F)F)cc1C(F)(F)F [Example 68, 4-((2R,5S)-5-(((2-chloropyridin-4-yl)oxy)methyl)-2-(trifluoromethyl)oxazolidin-3-yl)-2-(trifluoromethyl)benzonitrile]																					EC50 (androgen receptor (hAR); EC50 [nM] (mean ± SE)): 6.06 nM
N#Cc1ccc(OC[C@@H]2CN(c3ccc(C#N)c(Cl)c3)[C@@H](C(F)(F)F)O2)cc1 [Example 71, 2-chloro-4-((2R,5S)-5-((4-cyanophenoxy)methyl)-2-(trifluoromethyl)oxazolidin-3-yl)benzonitrile]																					EC50 (androgen receptor (hAR); EC50 [nM] (mean ± SE)): 1.57 nM
